Laboratory results from patent publication US6576671B1, “Aminotetralin derivatives for the therapy of cardiovascular diseases” (Chiese Farmaceutici S.p.A., priority 1999, dated 2003).

Legend:
α2-adrenergic receptors = assay: α2-adrenergic activity in isolated neuronally-stimulated rat vas deferens
[1] = test system: patients suffering from NYHA class II-III congestive heart failure; assay: Add-on therapy study, 28 days, clinical condition and exercise capacity; format: in vivo, human
Protocol: The effects of CHF 1030 as added therapy have been evaluated in patients suffering from NYHA class II-III congestive heart failure due to mild hypertension, or coronary disease, or chronic cardiomyopathy who were on diuretics or diuretics and an angiotensin-converting enzyme inhibitor.
Recruited patients were randomly assigned to added double-blind treatment with placebo or with three different doses of the study drug (5 mg, 10 mg, 15 mg).
The study therapy was started by patients on day 1 and proceeded until day 28 of the study.
The following parameters have been considered to determine the clinical condition of patients:
The functional response to the treatments has been evaluated by exertional tests, the 6-minute walking test and the 130-meter walking test.
For the evaluation of clinical condition, more than 60 symptoms or signs were evaluated.
For statistical purposes scores from signs and symptoms (as applicable) were summed to form clinical compound scorings (CCSs) of pathophysiological importance in congestive heart failure.

α2 adrenergic receptors = assay: α2 adrenergic receptor binding, [3H]-rauwolscine, rat cerebral cortex; details: rat cerebral cortex; read-out: IC50, 50% inhibition of [3H]-rauwolscine specific binding
Protocol: The affinity of CHF 1024 and CHF 1035 for α2, adrenergic receptors was tested on human platelets and on rat cerebral cortex.
The antagonist [^3H]-rauwolscine was used as marker of the receptor, being its binding reversible, saturable and specific.
Values are expressed as IC50=molar concentration of drug required for 50% inhibition of [^3H]-rauwolscine specific binding.

- IC50 (α2-adrenergic receptors; isolated neuronally-stimulated rat vas deferens, read-out: IC50, 50% inhibition of the electrically induced contraction): 71.4 nM
- more potent than dopamine (α2-adrenergic receptors; rat vas deferens): ~70 times
- duration of pharmacodynamic effects versus serum levels of the drug ([1]; patients with congestive heart failure): last longer than detectable serum levels
- IC50 (α2 adrenergic receptors): 2650 nM
SMILES: CNC1CCc2c(ccc(OC(=O)C(C)C)c2OC(=O)C(C)C)C1 (centres unmarked) [CHF 1035, 5,6-Diisobutyroyloxy-2-methylaminotetralin]
- functional and clinical condition of patients, compared to placebo ([1]; 5, 10, 15 mg add-on to diuretics or diuretics and ACE inhibitor, day 1 to 28): improved
